Laboratory results published in patent US4347252A, “Rodenticidal 1-(3,5-bistrifluoromethylphenyl)-3-(4-t-butylpiperidino)prop-1-yne” (priority 1980, dated 1982).

Key:
mice (Mus musculus) [1] = assay: Laboratory Feeding Tests on Mice in Pens, Test 3(b), choice of poisoned and plain bait; assay type: in vivo
Description: (§1) Laboratory Feeding Tests on Mice in Pens
(§2) A bait comprising oatmeal, wholemeal flour and corn oil (plain bait) and a bait of similar composition but incorporating 0.1% by weight of the test compound used in Test 2 hereinbefore described (poisoned bait) were prepared and used in the following tests on mice (Mus musculus) housed in pens.
A choice of poisoned and plain bait was offered to groups of mice.

[2] = tested on: Wild Rats (Rattus norvegicus); assay: Laboratory Simulated Field Test on Wild Rats in confinement; assay type: in vivo; conditions: for Total bait eaten: poisoned + plain
From the text: Laboratory Simulated Field Test on Wild Rats (Rattus norvegicus) in confinement
One male and nine female rats were given the choice of two feeding points, at each of which the animals were offered a bait consisting of medium oatmeal (95%) and wholemeal flour (5%) (plain bait). After a period of six days during which the plain bait was offered at both feeding points, the plain bait was replaced at one of the feeding points by a bait of the same composition in which 0.1% by weight of the test compound used in Test 2 hereinbefore described had been incorporated (poisoned bait), while the plain bait continued to be offered at the other feeding point.

mice (Mus musculus) [3] = assay: Laboratory Feeding Tests on Mice in Pens, Test 3(a), poisoned bait alone; assay type: in vivo; conditions: 0.1% by weight in bait
Description: as §1, §2
The poisoned bait alone was offered to 4 male and 4 female mice.

mice (laboratory strain) = assay: Acute Oral Toxicity in Mice (Laboratory Strain); assay type: in vivo; conditions: for LD50 (acute oral): aqueous suspension; for Observations: signs of poisoning: prior to death / after dosing
Description: Acute Oral Toxicity in Mice (Laboratory Strain)
Groups of mice were dosed orally with graded doses of the test compound in aqueous suspension and observed until there had been no deaths for at least three days. The acute oral LD50, that is to say the dose in mg/kg animal body weight necessary to kill 50% of the mice, was determined from the numbers of animals for each dose which died during the observation period by reference to published tables.

[4] = tested on: Warfarin-resistant rats (Rattus norvegicus); assay: Field Tests on Rats on three farms; assay type: in vivo
Description: Field Tests on Rats (Rattus norvegicus)
Field tests were carried out on warfarin-resistant rats on three farms. Baits were prepared from either medium oatmeal or soaked wheat in which was incorporated 0.1% by weight of the test compound used in Test 2 hereinbefore described. […] The amount of bait eaten per day was determined by weighing and the presence or absence of rats was deduced from the amount of bait eaten and by counting the traces of the presence of rats in patches of dust laid for this purpose.

[5] = tested on: Warfarin-resistant mice (Mus musculus); assay: Laboratory Feeding Tests on Wild Rodents: mice; assay type: in vivo; conditions: 0.1% by weight in bait
From the text: (§3) Laboratory Feeding Tests on Wild Rodents
(§4) Warfarin-resistant rats (Rattus norvegicus) and mice (Mus musculus) from wild populations were fed, in the laboratory, on a bait consisting of coarse oatmeal (90%), wholemeal flour (5%) and corn oil (5%). After feeding for four days on this bait, it was replaced by a treated bait of the same composition, in which 0.1% by weight of the test compound 1-(3,5-bistrifluoromethylphenyl)-3-(4-tert-butylpiperidino)prop-1-yne hydrochloride had been incorporated.

[6] = tested on: Warfarin-resistant rats (Rattus norvegicus); assay: Laboratory Feeding Tests on Wild Rodents: rats; assay type: in vivo; conditions: 0.1% by weight in bait
From the text: as §3, §4

mice (Mus musculus) [7] = assay: Field Test on Mice; assay type: in vivo
Description: Field Test on Mice (Mus musculus)
(1) A non-toxic bait was laid at 3 mouse-infested sites and the amount of bait eaten was determined by weighing. (2) The non-toxic bait was then withdrawn and replaced by a similar bait in which was incorporated 0.1% by weight of the test compound used in Test 2 hereinbefore described (poisoned bait). The amount of poisoned bait which was eaten was similarly determined by weighing over a period of three weeks. (3) The poisoned bait was then withdrawn and replaced by the non-toxic bait and the amount of non-toxic bait which was eaten was also similarly determined by weighing. The results obtained are given in following Table 6, the degree of control being calculated by a comparison of the amounts of non-toxic bait which were eaten during the periods before and after use of the poisoned bait.

## CC(C)(C)C1CCN(CC#Cc2cc(C(F)(F)F)cc(C(F)(F)F)c2)CC1.Cl [1-(3,5-bistrifluoromethylphenyl)-3-(4-tert-butylpiperidino)prop-1-yne hydrochloride]
Mice (Mus musculus) [1]; 15 mice in pen
  Mortality: 93.7%
Mice (Mus musculus) [1]; 15 mice in pen, Days 1 to 7
  Quantity of poisoned bait eaten: 43.0 g
Mice (Mus musculus) [1]; 15 mice in pen, Days 8 to 14
  Quantity of poisoned bait eaten: 1.2 g
Mice (Mus musculus) [1]; 15 mice in pen, Days 15 to 21
  Quantity of poisoned bait eaten: 0.3 g
Mice (Mus musculus) [1]; 16 mice in pen (first line)
  Mortality: 93.8%
Mice (Mus musculus) [1]; 16 mice in pen (first line), Days 1 to 7
  Quantity of poisoned bait eaten: 55.0 g
Mice (Mus musculus) [1]; 16 mice in pen (first line), Days 8 to 14
  Quantity of poisoned bait eaten: 0.5 g
Mice (Mus musculus) [1]; 16 mice in pen (first line), Days 15 to 21
  Quantity of poisoned bait eaten: 0.0 g
Mice (Mus musculus) [1]; 16 mice in pen (fourth line)
  Mortality: 93.8%
Mice (Mus musculus) [1]; 16 mice in pen (fourth line), Days 1 to 7
  Quantity of poisoned bait eaten: 25.7 g
Mice (Mus musculus) [1]; 16 mice in pen (fourth line), Days 8 to 14
  Quantity of poisoned bait eaten: 2.0 g
Mice (Mus musculus) [1]; 16 mice in pen (fourth line), Days 15 to 21
  Quantity of poisoned bait eaten: 0.3 g
Mice (Mus musculus) [1]; 24 mice in pen
  Mortality: 91.7%
Mice (Mus musculus) [1]; 24 mice in pen, Days 1 to 7
  Quantity of poisoned bait eaten: 42.3 g
Mice (Mus musculus) [1]; 24 mice in pen, Days 8 to 14
  Quantity of poisoned bait eaten: 3.5 g
Mice (Mus musculus) [1]; 24 mice in pen, Days 15 to 21
  Quantity of poisoned bait eaten: 0.7 g
[2]; Day 1, 0.1% by weight in bait
  Quantity of bait eaten, Feeding Point A, Poisoned bait: 99.7 g
[2]; Day 1 of offering poisoned bait at Point A
  Quantity of bait eaten, Feeding Point B, Plain bait: 80.1 g
[2]; Day 2
  Quantity of bait eaten, Feeding Point A, Poisoned bait: 95.2 g
  Total bait eaten: 161.1 g
[2]; Day 2 of offering poisoned bait at Point A
  Quantity of bait eaten, Feeding Point B, Plain bait: 65.9 g
[2]; Day 3
  Quantity of bait eaten, Feeding Point A, Poisoned bait: 19.8 g
  Total bait eaten: 97.2 g
[2]; Day 3 of offering poisoned bait at Point A
  Quantity of bait eaten, Feeding Point B, Plain bait: 67.4 g
[2]; Day 4
  Cumulative mortality: 30%
  Quantity of bait eaten, Feeding Point A, Poisoned bait: 5.1 g
  Total bait eaten: 43.2 g
[2]; Day 4 of offering poisoned bait at Point A
  Quantity of bait eaten, Feeding Point B, Plain bait: 38.1 g
[2]; Day 5
  Quantity of bait eaten, Feeding Point A, Poisoned bait: 1.8 g
  Total bait eaten: 29.5 g
[2]; Day 5 of offering poisoned bait at Point A
  Quantity of bait eaten, Feeding Point B, Plain bait: 27.7 g
[2]; Day 6
  Cumulative mortality: 60%
  Total bait eaten: 19.3 g
[2]; Day 6 of offering poisoned bait at Point A
  Quantity of bait eaten, Feeding Point B, Plain bait: 19.3 g
[2]; Day 7
  Cumulative mortality: 70%
  Total bait eaten: 4.0 g
[2]; Day 7 of offering poisoned bait at Point A
  Quantity of bait eaten, Feeding Point B, Plain bait: 4.0 g
[2]; Day 8
  Cumulative mortality: 80%
  Total bait eaten: 6.5 g
[2]; Day 8 of offering poisoned bait at Point A
  Quantity of bait eaten, Feeding Point B, Plain bait: 6.5 g
[2]; Day 9
  Cumulative mortality: 90%
  Quantity of bait eaten, Feeding Point A, Poisoned bait: 1.3 g
  Total bait eaten: 5.0 g
[2]; Day 9 of offering poisoned bait at Point A
  Quantity of bait eaten, Feeding Point B, Plain bait: 3.7 g
[2]; Day 11
  Quantity of bait eaten, Feeding Point A, Poisoned bait: 0.7 g
  Total bait eaten: 1.4 g
[2]; Day 11 of offering poisoned bait at Point A
  Quantity of bait eaten, Feeding Point B, Plain bait: 0.7 g
[2]; Day 12
  Cumulative mortality: 100%
[2]; Day 1
  Total bait eaten: 179.8 g
Mice (Mus musculus) [3]
  Days to Death, Mean: 5.5 days
  Mortality: 100%
Mice (Mus musculus) [3]; Day 1, 4 male and 4 female mice
  Quantity of poisoned bait eaten: 19.1 g
Mice (Mus musculus) [3]; Day 2
  Quantity of poisoned bait eaten: 18.8 g
Mice (Mus musculus) [3]; Day 3
  Quantity of poisoned bait eaten: 15.4 g
Mice (Mus musculus) [3]; Days 4-7
  Quantity of poisoned bait eaten: 13.7 g
Mice (laboratory strain)
  LD50 (acute oral): 23 mg/kg animal body weight
  Observations: signs of poisoning: no marked signs
[4]; Farm 1
  Total number of dead rats observed during test: 44
[4]; Farm 1, Day 1, 0.1% by weight in bait
  Amount of bait eaten: 2060 g
[4]; Farm 1, Day 2
  Amount of bait eaten: 440 g
[4]; Farm 1, Day 3
  Amount of bait eaten: 130 g
[4]; Farm 1, Day 4
  Amount of bait eaten: 60 g
[4]; Farm 1, Day 6
  Amount of bait eaten: 245 g
[4]; Farm 1, Day 7
  Amount of bait eaten: 130 g
[4]; Farm 1, Day 8
  Amount of bait eaten: 85 g
[4]; Farm 1, Day 9
  Amount of bait eaten: 30 g
[4]; Farm 1, Day 10
  Amount of bait eaten: 10 g
[4]; Farm 1, Day 11
  Amount of bait eaten: 40 g
[4]; Farm 1, Day 14
  Amount of bait eaten: 65 g
[4]; Farm 2
  Total number of dead rats observed during test: 8
[4]; Farm 2, Day 1, 0.1% by weight in bait
  Amount of bait eaten: 1455 g
[4]; Farm 2, Day 2
  Amount of bait eaten: 1100 g
[4]; Farm 2, Day 3
  Amount of bait eaten: 730 g
[4]; Farm 2, Day 4
  Amount of bait eaten: 210 g
[4]; Farm 2, Day 7
  Amount of bait eaten: 405 g
[4]; Farm 2, Day 8
  Amount of bait eaten: 135 g
[4]; Farm 2, Day 9
  Amount of bait eaten: 40 g
[4]; Farm 2, Day 10
  Amount of bait eaten: 30 g
[4]; Farm 2, Day 11
  Amount of bait eaten: 10 g
[4]; Farm 2, Day 14
  Amount of bait eaten: 95 g
[4]; Farm 2, Day 15
  Amount of bait eaten: 45 g
[4]; Farm 2, Day 16
  Amount of bait eaten: 0 g
[4]; Farm 3
  Total number of dead rats observed during test: 113
[4]; Farm 3, Day 1, 0.1% by weight in bait
  Amount of bait eaten: 4800 g
[4]; Farm 3, Day 2
  Amount of bait eaten: 2680 g
[4]; Farm 3, Day 3
  Amount of bait eaten: 360 g
[4]; Farm 3, Day 4
  Amount of bait eaten: 445 g
[4]; Farm 3, Day 7
  Amount of bait eaten: 565 g
[4]; Farm 3, Day 8
  Amount of bait eaten: 205 g
[4]; Farm 3, Day 9
  Amount of bait eaten: 185 g
[4]; Farm 3, Day 10
  Amount of bait eaten: 65 g
[4]; Farm 3, Day 11
  Amount of bait eaten: 15 g
[4]; by the fourth day of the tests
  rats initially present on the farms killed (estimated): about 80%
[4]; by the fourth day, vs usual kill with anticoagulant rodenticides used similarly
  percentage kill compared with anticoagulant rodenticides: significantly higher percentage kill
[5]; female mice
  Days to Death, Mean: 5.8 days
  Mortality: 5/5
[5]; male mice
  Days to Death, Mean: 6.2 days
  Mortality: 5/5
[6]; female rats
  Days to Death, Mean: 5.8 days
  Mortality: 5/5
[6]; male rats
  Days to Death, Mean: 7.2 days
  Mortality: 5/5
Mice (Mus musculus) [7]; Site 1
  Estimated Control: 98.8%
Mice (Mus musculus) [7]; Site 1 (912 g per week before)
  Amount of non-toxic bait eaten per week in period following use of poisoned bait: 11 g
Mice (Mus musculus) [7]; Site 1, Week 1, 0.1% by weight in bait
  Amount of poisoned bait eaten: 368 g
Mice (Mus musculus) [7]; Site 1, Week 2
  Amount of poisoned bait eaten: 1 g
Mice (Mus musculus) [7]; Site 2
  Estimated Control: 98.9%
Mice (Mus musculus) [7]; Site 2 (897 g per week before)
  Amount of non-toxic bait eaten per week in period following use of poisoned bait: 10 g
Mice (Mus musculus) [7]; Site 2, Week 1, 0.1% by weight in bait
  Amount of poisoned bait eaten: 441 g
Mice (Mus musculus) [7]; Site 2, Week 2
  Amount of poisoned bait eaten: 0 g
Mice (Mus musculus) [7]; Site 3
  Estimated Control: 100%
Mice (Mus musculus) [7]; Site 3 (1880 g per week before)
  Amount of non-toxic bait eaten per week in period following use of poisoned bait: 0 g
Mice (Mus musculus) [7]; Site 3, Week 1, 0.1% by weight in bait
  Amount of poisoned bait eaten: 929 g
Mice (Mus musculus) [7]; Site 3, Week 2
  Amount of poisoned bait eaten: 115 g
Mice (Mus musculus) [7]; Site 3, Week 3
  Amount of poisoned bait eaten: 11 g

## CC(C)(C)C1CCN(CC#Cc2cc(C(F)(F)F)cc(C(F)(F)F)c2)CC1 [Compound of formula I as free base, 1-(3,5-bistrifluoromethylphenyl)-3-(4-tert-butylpiperidino)prop-1-yne]
rodents; in vivo
  major symptom of toxicity: sedation is the major symptom of toxicity
  manner of death of treated animals: die quietly, without exhibiting signs of distress
rodents; vs anticoagulant rodenticides
  period of delay between ingestion and death compared with anticoagulant rodenticides: shorter
rodents; vs strains which do not possess this resistance
  toxicity to strains of rodents resistant to anticoagulant rodenticides: equally as toxic
Mice (laboratory strain)
  LD50 (acute oral): 68 mg/kg animal body weight
  Observations: signs of poisoning: Some signs of poisoning
